The source of these data is patent US8685924B2, “Preventives/remedies for stress urinary incontinence and method of screening the same” (Takeda Pharmaceutical Company Limited, priority 2004, dated 2014).

SMILES strings stand for the structures.

Common to all, as to assay type: in vivo, rat
The test system of experiment [1] is urethane-anesthetized female rats. The experiment can be described thus: Antagonism of the leak point pressure increase by WAY-161503 / WAY-163909, abdominal wall-electrically stimulating method (Example 3). The following applies: for leak point pressure after drug administration / leak point pressure increase / leak point pressure before drug administration: i.v., mean ± SEM; for leak point pressure before drug administration: baseline. How it is done:
(§1) SD female rats (body weight 180-350 g) were anesthetized with urethane (Wako Pure Chemical Industries, Ltd.), and the spinal cord was transected at T8-9 level to eliminate the reflex voiding. In addition, the nerve to the iliococcygeus muscle/pubococcygeus muscle on the one side was transected. During operation, halothane (Takeda Pharmaceutical Company Limited) anesthesia was added when necessary. A catheter (PE-90, Clay Adams) was inserted into the bladder and secured with a ligature, and the incised part of each of the abdominal muscle and skin was closed with sutures. The abdominal skin near the diaphragm was incised at two left and right positions to newly expose the abdominal muscle. An Evans Blue dye (Merck) solution was injected into the bladder, and the bladder volume was adjusted to 0.2-0.3 ml. The bladder catheter was connected to a pressure transducer, and the signals of the transducer were sent to a computer via an amplifier (blood pressure amplification unit AP-641G; NIHON KOHDEN) and an analog-to-digital converter (BIOPAC; MP100), and recorded on a hard disc. The data were analyzed on a computer using software (BIOPAC; AcqKnowledge). The exposed abdominal muscle was electrostimulated using an electrostimulator (SEN-3301; NIHON KODEN) and an isolator (SS-202J; NIHON KODEN), and the presence or absence of incontinence from the meatus urethra was observed. The electrostimulation was applied at a voltage of 2.5-50 V, duration of 0.5 milisec, and frequency 50 Hz for 1 sec, thereby gradually increasing the intravesical pressure. The peak intravesical pressure during stimulation of the abdominal wall was measured and, of the trials with observed incontinence, the lowest peak intravesical pressure was defined as the leak point pressure. Serotonin 5-HT receptor agonist, WAY-161503 (5-HT2C receptor agonist), WAY-163909 (5-HT2C receptor agonist), DOI (5-HT2A/2B/2C receptor agonist), mCPP (5-HT2B/2C receptor partial agonist), eltoprazine (5-HT1A/1B/2C receptor partial agonist), 8-OH-DPAT (5-HT1A receptor agonist), sumatryptan (5-HT1B/1D receptor agonist) and BW723C86 (5-HT2B receptor agonist) were intravenously administered, and the leak point pressure was compared before and after the administration. DOI, mCPP and eltoprazine were dissolved in saline, and other drugs were dissolved in DMA/PEG400 (1:1), and they were intravenously administered at 1 ml/kg and 0.5 mg/kg, respectively. Depending on the experiment, RS-102221 (serotonin 5-HT2C receptor antagonist) or SB221284 (serotonin 5-HT2B/2C receptor antagonist) was intravenously administered 5 min before WAY-161503 or WAY-163909 administration, and an antagonistic effect against the WAY-161503 or WAY-163909-induced increment of the leak point pressure was examined. RS-102221 and SB221284 were both dissolved in DMA/PEG400 (1:1) and intravenously administered at 0.5 ml/kg.

Experiment [2] shares this test system. The experiment in a line: Antagonism of the leak point pressure increase by WAY-161503 / WAY-163909, direct bladder compression method (Example 4). The conditions noted are these: for leak point pressure after drug administration / leak point pressure increase / leak point pressure before drug administration: i.v., mean ± SEM; for leak point pressure before drug administration: baseline. How it is done:
(§2) SD female rats (body weight 180-350 g) were anesthetized with urethane (Wako Pure Chemical Industries, Ltd.), and halothane (Takeda Pharmaceutical Company Limited) anesthesia was added when necessary during operation.
(§3) The spinal cord was transected at T8-9 level to eliminate the reflex voiding. The lower abdomen was incised in the median line, a catheter for intravesical pressure measurement (PE-90, Clay Adams) was inserted into the bladder and secured with a ligature, and the intravesical pressure was measured via a pressure transducer. Urine was emptized in advance by bilaterally pressing the bladder with two swabs, and a 0.1% Evans blue (Merck) solution (0.4 mL) was injected into the bladder. The bladder was gradually compressed bilaterally with two swabs, and the intravesical pressure upon saline leakage from the urethral orifice was measured and defined as a leak point pressure. The measurement of the leak point pressure was repeated, and the average value of the final five stable measures was taken as the value before drug administration. Thereafter, the drug was intravenously administered, the leak point pressure was measured again 20 min later, and the value after the drug administration was determined. DOI, mCPP and eltoprazine were dissolved in saline, and other drugs were dissolved in DMA/PEG400 (1:1), and intravenously administered at 1 ml/kg and 0.5 mg/kg, respectively. Depending on the experiment, RS-102221 or SB221284 (showing serotonin 5-HT2C receptor antagonist activity) was administered, 5 min later, WAY-161503 or WAY-163909 was administered, leak point pressure was measured 10 min later, and a competitive assay with the action of WAY-161503 or WAY-163909 was performed. RS-102221 and SB221284 were both dissolved in DMA/PEG400 (1:1), and intravenously administered at 0.5 ml/kg.

For experiment [3] the test system is unchanged. The experiment can be described thus: Leak point pressure by abdominal wall-electrically stimulating method, serotonin 5-HT receptor agonists (Example 3). The following applies: for leak point pressure after drug administration / leak point pressure increase / leak point pressure before drug administration: i.v., mean ± SEM; for leak point pressure before drug administration: baseline. The method, then: as §1

The test system is the same in experiment [4]. The experiment in a line: Leak point pressure by direct compressing of the bladder (Example 4). The conditions noted are these: for leak point pressure after drug administration / leak point pressure increase / leak point pressure before drug administration: i.v., mean ± SEM; for leak point pressure after drug administration: 20 min later; for leak point pressure before drug administration: baseline. How it is done:
as §2, §3

[5] abbreviates: antagonist 1 mg/kg, i.v. 5 min before WAY-161503 0.3 mg/kg.
The mark [6] stands for this setting: antagonist 3 mg/kg, i.v. 5 min before WAY-161503 0.3 mg/kg.
Where [7] appears, read: antagonist 3 mg/kg, i.v. 5 min before WAY-163909 0.3 mg/kg.
Setting [8] is: antagonist 1 mg/kg, i.v. + WAY-161503 0.3 mg/kg.
Where [9] appears, read: antagonist 3 mg/kg, i.v. + WAY-161503 0.3 mg/kg.
[10] abbreviates: antagonist 3 mg/kg, i.v. + WAY-163909 0.3 mg/kg.
The mark [11] stands for this setting: antagonist 1 mg/kg, i.v. 5 min before WAY-163909 0.3 mg/kg.
The mark [12] stands for this setting: antagonist alone 3 mg/kg, agonist: solvent, WAY-161503 series.
Where [13] appears, read: antagonist alone 3 mg/kg, agonist: solvent, WAY-163909 series.
The mark [14] stands for this setting: intravenous, against WAY-163909.
[15] abbreviates: antagonist 0.1 mg/kg, i.v. 5 min before WAY-161503 0.3 mg/kg.
The mark [16] stands for this setting: antagonist 0.3 mg/kg, i.v. 5 min before WAY-161503 0.3 mg/kg.
The mark [17] stands for this setting: antagonist 0.1 mg/kg, i.v. 5 min before WAY-163909 0.3 mg/kg.
[18] abbreviates: antagonist 0.3 mg/kg, i.v. 5 min before WAY-163909 0.3 mg/kg.
The mark [19] stands for this setting: antagonist alone 0.3 mg/kg, agonist: solvent, WAY-163909 series.

In the case of `COc1cc(OC)c(C(=O)CCCCN2CCC3(CC2)NC(=O)NC3=O)cc1NS(=O)(=O)c1ccc(C(F)(F)F)cc1` [RS102221], the “leak point pressure after drug administration” value in experiment [1] (setting [5]) is given as 68.5 ± 6.1 cmH2O; in experiment [1] (setting [6]), 50.0 ± 6.3 cmH2O; in experiment [1] (setting [7]) it was 53.0 ± 7.0 cmH2O; in experiment [2] (setting [5]), 67.5 ± 5.4 cmH2O; in experiment [2] (setting [11]) it was 74.1 ± 3.4 cmH2O; in experiment [2] (setting [6]) it was 70.5 ± 1.8 cmH2O. Moreover, the results for the “leak point pressure after drug administration” value in experiment [2] (setting [7]), in experiment [2] (setting [12]) and in experiment [2] (setting [13]) were 70.9 ± 3.0 cmH2O, 60.7 ± 6.2 cmH2O and 59.2 ± 6.6 cmH2O, respectively. Also, the “leak point pressure increase” value in experiment [1] (setting [5]) came out at 20.2 ± 4.1 cmH2O; in experiment [1] (setting [6]), 9.7 ± 2.1 cmH2O; in experiment [1] (setting [7]), 6.5 ± 2.4 cmH2O; in experiment [2] (setting [5]) it was 12.8 ± 1.9 cmH2O; in experiment [2] (setting [11]), 11.6 ± 2.4 cmH2O; in experiment [2] (setting [6]), 9.8 ± 2.7 cmH2O. For the same compound, the “leak point pressure increase” value in experiment [2] (setting [7]) is 7.4 ± 1.4 cmH2O; in experiment [2] (setting [12]) it was 3.8 ± 1.9 cmH2O; in experiment [2] (setting [13]) it was −0.2 ± 2.1 cmH2O. Further, the “leak point pressure before drug administration” value turned out to be 48.3 ± 7.5 cmH2O in experiment [1] (setting [8]); 40.3 ± 5.5 cmH2O in experiment [1] (setting [9]); 46.5 ± 5.9 cmH2O in experiment [1] (setting [10]); 54.7 ± 6.1 cmH2O in experiment [2] (setting [8]); 62.5 ± 3.1 cmH2O in experiment [2] (antagonist 1 mg/kg, i.v. + WAY-163909 0.3 mg/kg); 60.7 ± 3.3 cmH2O in experiment [2] (setting [9]). Also, the “leak point pressure before drug administration” value came to 63.6 ± 3.3 cmH2O in experiment [2] (setting [10]), 56.8 ± 5.5 cmH2O in experiment [2] (setting [12]) and 59.4 ± 7.0 cmH2O in experiment [2] (setting [13]). For the same compound, the “dose at which suppression of the leak point pressure increase was significant” value came out at 3 mg/kg in experiment [1] (intravenous, against WAY-161503 (0.3 mg/kg, i.v.) or WAY-163909 (0.3 mg/kg, i.v.)); 3 mg/kg in experiment [2] (intravenous, against WAY-161503 (0.3 mg/kg, i.v.)); 3 mg/kg in experiment [2] (setting [14]).
On to `CSc1cc2c(cc1C(F)(F)F)N(C(=O)Nc1cccnc1)CC2` [SB221284], for which, in experiment [1] (against WAY-161503), the “suppression of the leak point pressure increasing action” value is on record as “suppressed the leak point pressure increasing action by WAY-161503 significantly”. Besides, the “leak point pressure after drug administration” value in experiment [1] (setting [15]) is 66.9 ± 9.8 cmH2O; in experiment [1] (setting [16]), 46.8 ± 6.2 cmH2O; in experiment [2] (setting [17]), 59.4 ± 3.9 cmH2O; in experiment [2] (setting [18]), 60.7 ± 3.9 cmH2O; in experiment [2] (setting [19]), 63.0 ± 2.0 cmH2O. Further, the “leak point pressure increase” value in experiment [1] (setting [15]) was 13.6 ± 3.8 cmH2O; in experiment [1] (setting [16]) it was −3.6 ± 1.4 cmH2O; in experiment [2] (setting [17]) it was 6.2 ± 3.1 cmH2O; in experiment [2] (setting [18]) it was 0.4 ± 1.7 cmH2O; in experiment [2] (setting [19]) it was −1.2 ± 2.2 cmH2O. Also, the “leak point pressure before drug administration” value worked out at 53.3 ± 7.0 cmH2O in experiment [1] (antagonist 0.1 mg/kg, i.v. + WAY-161503 0.3 mg/kg); 50.4 ± 6.3 cmH2O in experiment [1] (antagonist 0.3 mg/kg, i.v. + WAY-161503 0.3 mg/kg); 53.2 ± 3.4 cmH2O in experiment [2] (antagonist 0.1 mg/kg, i.v. + WAY-163909 0.3 mg/kg); 60.3 ± 4.0 cmH2O in experiment [2] (antagonist 0.3 mg/kg, i.v. + WAY-163909 0.3 mg/kg); 64.2 ± 1.2 cmH2O in experiment [2] (setting [19]). Besides, the “suppression of the leak point pressure increase” value in experiment [2] (setting [14]) is given as “significantly suppressed an increase in the leak point pressure by WAY-163909”.
As to `c1cc2c(c(N3CCNCC3)c1)OCCO2` [eltoprazine], the “leak point pressure after drug administration” value is given as 55.2 ± 4.5 cmH2O in experiment [3] (1 mg/kg), 63.2 ± 5.6 cmH2O in experiment [3] (3 mg/kg), 76.7 ± 4.7 cmH2O in experiment [4] (1 mg/kg) and 74.6 ± 2.3 cmH2O in experiment [4] (3 mg/kg). For the same compound, the “leak point pressure increase” value in experiment [3] (1 mg/kg) came out at 6.1 ± 1.7 cmH2O; in experiment [3] (3 mg/kg), 15.8 ± 3.1 cmH2O; in experiment [4] (1 mg/kg), 8.0 ± 2.8 cmH2O; in experiment [4] (3 mg/kg), 13.5 ± 1.0 cmH2O. For the same compound, the “leak point pressure before drug administration” value is on record as 49.2 ± 5.2 cmH2O in experiment [3] (dose group 1 mg/kg), 47.4 ± 5.5 cmH2O in experiment [3] (dose group 3 mg/kg), 68.6 ± 6.1 cmH2O in experiment [4] (dose group 1 mg/kg) and 61.1 ± 2.4 cmH2O in experiment [4] (dose group 3 mg/kg). Also, the “effect on leak point pressure” value in experiment [3] (intravenous administration) and in experiment [4] (intravenous administration) was “increased the leak point pressure significantly” in each case.
